# PMC10065276, “Enhanced therapeutic window for antimicrobial Pept-ins by investigating their structure-activity relationship” (PLOS ONE, 2023)
# Residues, ends and D or L forms follow the SMILES beside them.
# System: E. coli BL21
# Conditions: BL21, 17 h
# Experimental: The peptide MIC was determined via the broth microdilution assay according to the EUCAST guideline, using 96-well polystyrene flat-bottom microtiter plates (BD Biosciences). Briefly, a single colony was inoculated in 5 mL Mueller-Hinton (MH) medium and incubated, while shaking at 37°C, to the end-exponential growth phase. The bacterial culture was subsequently diluted to 0.005 McFarland (McF) (~1.5x10^6 CFU/mL) with fresh MH medium. Two-fold serial peptide-dilutions were prepared in 50 μL MH medium resulting in a concentration range of 0.75 to 100 μg/mL (at least three wells for each concentration). Afterwards, 50 μL of the freshly diluted bacterial suspension (0.005 McF) was mixed with different peptide concentrations in the 96-well plate, performed in triplicates. The plate was ultimately incubated at 37°C overnight without shaking for 17 hours. The MIC was determined as the lowest peptide concentration without visible bacterial growth.
SMILES,BL21 MIC [µg/mL],MIC against E. coli BL21 [µg/mL]
CC(C)C[C@H](NC(=O)CNC(=O)[C@H](CCCNC(=N)N)NC(=O)[C@H](C)NC(=O)[C@H](C)NC(=O)[C@H](CCCNC(=N)N)NC(=O)[C@@H](NC(=O)[C@H](CC(C)C)NC(=O)[C@H](C)NC(=O)[C@H](CC(C)C)NC(=O)CNC(=O)[C@H](CC(C)C)NC(=O)CNC(=O)[C@@H](N)CCCNC(=N)N)C(C)C)C(=O)NCC(=O)N[C@@H](CC(C)C)C(=O)N[C@@H](C)C(=O)N[C@@H](CC(C)C)C(=O)N[C@H](C(=O)N[C@@H](C)C(=O)N[C@@H](CCCNC(=N)N)C(=O)O)C(C)C [Peptide P2_4R_A] (H-RGLGLALVRAARGLGLALVAR-OH),12.50,–
CC(C)C[C@H](NC(=O)CNC(=O)[C@H](CCCNC(=N)N)NC(=O)[C@H](Cc1ccccc1)NC(=O)[C@H](C)NC(=O)[C@H](CCCNC(=N)N)NC(=O)[C@@H](NC(=O)[C@H](CC(C)C)NC(=O)[C@H](C)NC(=O)[C@H](CC(C)C)NC(=O)CNC(=O)[C@H](CC(C)C)NC(=O)CNC(=O)[C@@H](N)CCCNC(=N)N)C(C)C)C(=O)NCC(=O)N[C@@H](CC(C)C)C(=O)N[C@@H](C)C(=O)N[C@@H](CC(C)C)C(=O)N[C@H](C(=O)N[C@@H](C)C(=O)N[C@@H](CCCNC(=N)N)C(=O)O)C(C)C [Peptide P2_4R_F] (H-RGLGLALVRAFRGLGLALVAR-OH),12.50,–
CC(C)C[C@H](NC(=O)CNC(=O)[C@H](CCCNC(=N)N)NC(=O)[C@@H](NC(=O)CNC(=O)[C@H](C)NC(=O)[C@H](CCCNC(=N)N)NC(=O)[C@@H](NC(=O)[C@H](CC(C)C)NC(=O)[C@H](C)NC(=O)[C@H](CC(C)C)NC(=O)CNC(=O)[C@H](CC(C)C)NC(=O)CNC(=O)[C@@H](N)CCCNC(=N)N)C(C)C)C(C)C)C(=O)NCC(=O)N[C@@H](CC(C)C)C(=O)N[C@@H](C)C(=O)N[C@@H](CC(C)C)C(=O)N[C@H](C(=O)N[C@@H](C)C(=O)N[C@@H](CCCNC(=N)N)C(=O)O)C(C)C [Peptide P2_4R_GV] (H-RGLGLALVRAGVRGLGLALVAR-OH),6.25,6.3
CC[C@H](C)[C@H](NC(=O)[C@H](C)NC(=O)[C@H](CCCNC(=N)N)NC(=O)[C@@H](NC(=O)[C@H](CC(C)C)NC(=O)[C@H](C)NC(=O)[C@H](CC(C)C)NC(=O)CNC(=O)[C@H](CC(C)C)NC(=O)CNC(=O)[C@@H](N)CCCNC(=N)N)C(C)C)C(=O)N[C@@H](CCCNC(=N)N)C(=O)NCC(=O)N[C@@H](CC(C)C)C(=O)NCC(=O)N[C@@H](CC(C)C)C(=O)N[C@@H](C)C(=O)N[C@@H](CC(C)C)C(=O)N[C@H](C(=O)N[C@@H](C)C(=O)N[C@@H](CCCNC(=N)N)C(=O)O)C(C)C [Peptide P2_4R_I] (H-RGLGLALVRAIRGLGLALVAR-OH),12.50,–
CSCC[C@H](NC(=O)[C@H](C)NC(=O)[C@H](CCCNC(=N)N)NC(=O)[C@@H](NC(=O)[C@H](CC(C)C)NC(=O)[C@H](C)NC(=O)[C@H](CC(C)C)NC(=O)CNC(=O)[C@H](CC(C)C)NC(=O)CNC(=O)[C@@H](N)CCCNC(=N)N)C(C)C)C(=O)N[C@@H](CCCNC(=N)N)C(=O)NCC(=O)N[C@@H](CC(C)C)C(=O)NCC(=O)N[C@@H](CC(C)C)C(=O)N[C@@H](C)C(=O)N[C@@H](CC(C)C)C(=O)N[C@H](C(=O)N[C@@H](C)C(=O)N[C@@H](CCCNC(=N)N)C(=O)O)C(C)C [Peptide P2_4R_M] (H-RGLGLALVRAMRGLGLALVAR-OH),12.50,–
CC(C)C[C@H](NC(=O)CNC(=O)[C@H](CCCNC(=N)N)NC(=O)[C@H](CCCNC(=N)N)NC(=O)[C@H](C)NC(=O)[C@H](CCCNC(=N)N)NC(=O)[C@@H](NC(=O)[C@H](CC(C)C)NC(=O)[C@H](C)NC(=O)[C@H](CC(C)C)NC(=O)CNC(=O)[C@H](CC(C)C)NC(=O)CNC(=O)[C@@H](N)CCCNC(=N)N)C(C)C)C(=O)NCC(=O)N[C@@H](CC(C)C)C(=O)N[C@@H](C)C(=O)N[C@@H](CC(C)C)C(=O)N[C@H](C(=O)N[C@@H](C)C(=O)N[C@@H](CCCNC(=N)N)C(=O)O)C(C)C [Peptide P2_4R_R] (H-RGLGLALVRARRGLGLALVAR-OH),12.50,–
CC(C)C[C@H](NC(=O)CNC(=O)[C@H](CCCNC(=N)N)NC(=O)[C@@H](NC(=O)[C@H](C)NC(=O)[C@H](CCCNC(=N)N)NC(=O)[C@@H](NC(=O)[C@H](CC(C)C)NC(=O)[C@H](C)NC(=O)[C@H](CC(C)C)NC(=O)CNC(=O)[C@H](CC(C)C)NC(=O)CNC(=O)[C@@H](N)CCCNC(=N)N)C(C)C)C(C)C)C(=O)NCC(=O)N[C@@H](CC(C)C)C(=O)N[C@@H](C)C(=O)N[C@@H](CC(C)C)C(=O)N[C@H](C(=O)N[C@@H](C)C(=O)N[C@@H](CCCNC(=N)N)C(=O)O)C(C)C [Peptide P2_4R_V] (H-RGLGLALVRAVRGLGLALVAR-OH),12.50,–
CC(C)C[C@H](NC(=O)CNC(=O)[C@H](CCCNC(=N)N)NC(=O)[C@H](Cc1c[nH]c2ccccc12)NC(=O)[C@H](C)NC(=O)[C@H](CCCNC(=N)N)NC(=O)[C@@H](NC(=O)[C@H](CC(C)C)NC(=O)[C@H](C)NC(=O)[C@H](CC(C)C)NC(=O)CNC(=O)[C@H](CC(C)C)NC(=O)CNC(=O)[C@@H](N)CCCNC(=N)N)C(C)C)C(=O)NCC(=O)N[C@@H](CC(C)C)C(=O)N[C@@H](C)C(=O)N[C@@H](CC(C)C)C(=O)N[C@H](C(=O)N[C@@H](C)C(=O)N[C@@H](CCCNC(=N)N)C(=O)O)C(C)C [Peptide P2_4R_W] (H-RGLGLALVRAWRGLGLALVAR-OH),12.50,–
CC(C)C[C@H](NC(=O)CNC(=O)[C@H](CCCNC(=N)N)NC(=O)[C@@H]1CCCN1C(=O)[C@H](CCCNC(=N)N)NC(=O)[C@H](CCCNC(=N)N)NC(=O)[C@@H](NC(=O)[C@H](CC(C)C)NC(=O)[C@H](C)NC(=O)[C@H](CC(C)C)NC(=O)CNC(=O)[C@H](CC(C)C)NC(=O)CNC(=O)[C@@H](N)CCCNC(=N)N)C(C)C)C(=O)NCC(=O)N[C@@H](CC(C)C)C(=O)N[C@@H](Cc1ccccc1)C(=O)N[C@@H](CC(C)C)C(=O)N[C@H](C(=O)N[C@@H](CCCNC(=N)N)C(=O)N[C@@H](CCCNC(=N)N)C(=O)O)C(C)C [Peptide P2_A5F] (H-RGLGLALVRRPRGLGLFLVRR-OH),3.13,–
CC[C@H](C)[C@H](NC(=O)[C@H](CC(C)C)NC(=O)CNC(=O)[C@H](CC(C)C)NC(=O)CNC(=O)[C@H](CCCNC(=N)N)NC(=O)[C@@H]1CCCN1C(=O)[C@H](CCCNC(=N)N)NC(=O)[C@H](CCCNC(=N)N)NC(=O)[C@@H](NC(=O)[C@H](CC(C)C)NC(=O)[C@H](C)NC(=O)[C@H](CC(C)C)NC(=O)CNC(=O)[C@H](CC(C)C)NC(=O)CNC(=O)[C@@H](N)CCCNC(=N)N)C(C)C)C(=O)N[C@@H](CC(C)C)C(=O)N[C@H](C(=O)N[C@@H](CCCNC(=N)N)C(=O)N[C@@H](CCCNC(=N)N)C(=O)O)C(C)C [Peptide P2_A5I] (H-RGLGLALVRRPRGLGLILVRR-OH),12.50,–
CC(C)C[C@H](NC(=O)CNC(=O)[C@H](CCCNC(=N)N)NC(=O)[C@@H]1CCCN1C(=O)[C@H](CCCNC(=N)N)NC(=O)[C@H](CCCNC(=N)N)NC(=O)[C@@H](NC(=O)[C@H](CC(C)C)NC(=O)[C@H](C)NC(=O)[C@H](CC(C)C)NC(=O)CNC(=O)[C@H](CC(C)C)NC(=O)CNC(=O)[C@@H](N)CCCNC(=N)N)C(C)C)C(=O)NCC(=O)N[C@@H](CC(C)C)C(=O)N[C@@H](CC(C)C)C(=O)N[C@@H](CC(C)C)C(=O)N[C@H](C(=O)N[C@@H](CCCNC(=N)N)C(=O)N[C@@H](CCCNC(=N)N)C(=O)O)C(C)C [Peptide P2_A5L] (H-RGLGLALVRRPRGLGLLLVRR-OH),6.25,–
